Measurements as given in US10004701B2, “Methods and compositions for treating infection” (UNIVERSITY OF ROCHESTER, priority 2012, dated 2018).
Structures can show the parent of a compound that is named as a salt. Where two headings read alike, the source gives them in different places.

Key:
Assay in all cases: AK assay 384-well format, Prestwick library screening
[1] = test system: E. faecium; format: cell-based, Enterococcus faecium; conditions: 50 μM final drug concentration; for fold induction at 50 µM: Enterococcus faecium, 3 h
[2] = test system: A. baumannii strain 98-37-09; format: cell-based, Acinetobacter baumannii; conditions: 50 μM final drug concentration; for fold induction at 50 µM: Acinetobacter baumannii, 983709, 3 h
[3] = test system: P. aeruginosa; format: cell-based, Pseudomonas aeruginosa; conditions: 50 μM final drug concentration; for fold induction at 50 µM: Pseudomonas aeruginosa, 3 h
[4] = test system: E. cloacae; format: cell-based, Enterobacter cloacae; conditions: 50 μM final drug concentration; for fold induction at 50 µM: Enterobacter cloacae, 3 h
[5] = test system: S. aureus strain USA300-0114; format: cell-based, Staphylococcus aureus; conditions: 50 μM final drug concentration; for fold induction at 50 µM: Staphylococcus aureus, USA300, 3 h
[6] = test system: K. pneumoniae; format: cell-based, Klebsiella pneumoniae; conditions: 50 μM final drug concentration; for fold induction at 50 µM: Klebsiella pneumoniae, 3 h
[7] = test system: E. coli; format: cell-based, Escherichia coli; conditions: 50 μM final drug concentration; for fold induction at 50 µM: Escherichia coli, 3 h
[8] = planktonic, cutoff for positive-scoring molecules 3-fold increase, read-out: AK-based Prestwick Library Screening Results, E. faecium (fold increase in extracellular AK activity)
[9] = planktonic, cutoff for positive-scoring molecules 3-fold increase, read-out: AK-based Prestwick Library Screening Results, A. baumannii (fold increase in extracellular AK activity)
[10] = planktonic, cutoff for positive-scoring molecules 3-fold increase, read-out: AK-based Prestwick Library Screening Results, P. aeruginosa (fold increase in extracellular AK activity)
[11] = planktonic, cutoff for positive-scoring molecules 3-fold increase, read-out: AK-based Prestwick Library Screening Results, E. cloacae (fold increase in extracellular AK activity)
[12] = planktonic, cutoff for positive-scoring molecules 3-fold increase, read-out: AK-based Prestwick Library Screening Results, S. aureus (fold increase in extracellular AK activity)
[13] = planktonic, cutoff for positive-scoring molecules 3-fold increase, read-out: AK-based Prestwick Library Screening Results, K. pneumoniae (fold increase in extracellular AK activity)
[14] = planktonic, cutoff for positive-scoring molecules 3-fold increase, read-out: AK-based Prestwick Library Screening Results, E. coli (fold increase in extracellular AK activity)
[15] = 384-well format, cutoff for positive-scoring molecules 3-fold increase
[16] = planktonic, cutoff for positive 3-fold increase

CC[N+](C)(CC)CCOC(=O)C1c2ccccc2Oc2ccccc21 [Methantheline bromide] gave a fold induction at 50 µM ([1]; planktonic E. faecium, positive cutoff 3-fold increase, read-out: AK-based Prestwick library screening result, E. faecium (fold increase in extracellular AK activity)) of 0.9, a fold induction at 50 µM ([2]; planktonic A. baumannii, positive cutoff 3-fold increase, read-out: AK-based Prestwick library screening result, A. baumannii (fold increase in extracellular AK activity)) of 0.8 and a fold induction at 50 µM ([3]; planktonic P. aeruginosa, positive cutoff 3-fold increase, read-out: AK-based Prestwick library screening result, P. aeruginosa (fold increase in extracellular AK activity)) of 0.9. It also gave a fold induction at 50 µM ([4]; planktonic E. cloacae, positive cutoff 3-fold increase, read-out: AK-based Prestwick library screening result, E. cloacae (fold increase in extracellular AK activity)) of 1.1, a fold induction at 50 µM ([5]; planktonic S. aureus, positive cutoff 3-fold increase, read-out: AK-based Prestwick library screening result, S. aureus (fold increase in extracellular AK activity)) of 0.7 and a fold induction at 50 µM ([6]; planktonic K. pneumoniae, positive cutoff 3-fold increase, read-out: AK-based Prestwick library screening result, K. pneumoniae (fold increase in extracellular AK activity)) of 0.8. The fold induction at 50 µM ([7]; planktonic E. coli, positive cutoff 3-fold increase, read-out: AK-based Prestwick library screening result, E. coli (fold increase in extracellular AK activity)) was 0.9.
Nc1ccc(S(=O)(=O)Nc2cnc3ccccc3n2)cc1 [Sulfaquinoxaline sodium salt] gave a fold induction at 50 µM [1, 8] of 0.9, a fold induction at 50 µM [2, 9] of 1 and a fold induction at 50 µM [3, 10] of 0.6. The fold induction at 50 µM [4, 11] was 0.8, the fold induction at 50 µM [5, 12] was 0.7 and the fold induction at 50 µM [6, 13] was 0.6. The fold induction at 50 µM [7, 14] was 0.6.
For CC(=O)OCC(=O)[C@@]1(O)CC[C@H]2[C@@H]3CCC4=CC(=O)C=C[C@]4(C)[C@@]3(F)[C@@H](O)C[C@@]21C [Isoflupredone acetate], the fold induction at 50 µM ([1]; 384-well format, cutoff for positive-scoring molecules 3-fold increase, read-out: AK-based Prestwick Library Screening Results, E. faecium (increase in extracellular AK activity)) was 0.9, the fold induction at 50 µM ([2]; 384-well format, cutoff for positive-scoring molecules 3-fold increase, read-out: AK-based Prestwick Library Screening Results, A. baumannii (increase in extracellular AK activity)) was 0.4 and the fold induction at 50 µM ([3]; 384-well format, cutoff for positive-scoring molecules 3-fold increase, read-out: AK-based Prestwick Library Screening Results, P. aeruginosa (increase in extracellular AK activity)) was 0.4. The fold induction at 50 µM ([4]; 384-well format, cutoff for positive-scoring molecules 3-fold increase, read-out: AK-based Prestwick Library Screening Results, E. cloacae (increase in extracellular AK activity)) was 0.4, the fold induction at 50 µM ([5]; 384-well format, cutoff for positive-scoring molecules 3-fold increase, read-out: AK-based Prestwick Library Screening Results, S. aureus (increase in extracellular AK activity)) was 0.4 and the fold induction at 50 µM ([6]; 384-well format, cutoff for positive-scoring molecules 3-fold increase, read-out: AK-based Prestwick Library Screening Results, K. pneumoniae (increase in extracellular AK activity)) was 0.5. For the same molecule, the fold induction at 50 µM ([7]; 384-well format, cutoff for positive-scoring molecules 3-fold increase, read-out: AK-based Prestwick Library Screening Results, E. coli (increase in extracellular AK activity)) was 0.5.
For C=C[C@]12CN(C)[C@@H]3[C@H]4CO[C@H](C[C@H]41)[C@]1(C(=O)Nc4ccccc41)[C@@H]32 [Gelsemine], the fold induction at 50 µM ([1]; planktonic, […], read-out: AK-based Prestwick Library Screening Results, E. faecium (fold increase in extracellular AK activity)) was 0.9, the fold induction at 50 µM ([2]; planktonic, […], read-out: AK-based Prestwick Library Screening Results, A. baumannii (fold increase in extracellular AK activity)) was 0.7 and the fold induction at 50 µM ([3]; planktonic, […], read-out: AK-based Prestwick Library Screening Results, P. aeruginosa (fold increase in extracellular AK activity)) was 0.9. For the same molecule, the fold induction at 50 µM ([4]; planktonic, […], read-out: AK-based Prestwick Library Screening Results, E. cloacae (fold increase in extracellular AK activity)) was 0.9, the fold induction at 50 µM ([5]; planktonic, […], read-out: AK-based Prestwick Library Screening Results, S. aureus (fold increase in extracellular AK activity)) was 0.7 and the fold induction at 50 µM ([6]; planktonic, […], read-out: AK-based Prestwick Library Screening Results, K. pneumoniae (fold increase in extracellular AK activity)) was 0.7. The fold induction at 50 µM ([7]; planktonic, […], read-out: AK-based Prestwick Library Screening Results, E. coli (fold increase in extracellular AK activity)) was 0.9.
With NS(=O)(=O)c1cc2c(cc1Cl)NC(C(Cl)Cl)NS2(=O)=O (stereo not drawn) [Trichlormethiazide] the fold induction at 50 µM [1, 8] was 1.4, the fold induction at 50 µM [2, 9] was 1 and the fold induction at 50 µM [3, 10] was 0.8. It also gave a fold induction at 50 µM [4, 11] of 1.2, a fold induction at 50 µM [5, 12] of 1.3 and a fold induction at 50 µM [6, 13] of 0.8. For the same molecule, the fold induction at 50 µM [7, 14] was 0.8.
For OCC(O)CN1CCN(c2ccccc2)CC1 (racemic) [Dropropizine (R,S)], the “AK-based Prestwick Library Screening Results, E. faecium (increase in extracellular AK activity)” value [1, 15] was 0.9, the “AK-based Prestwick Library Screening Results, A. baumannii (increase in extracellular AK activity)” value [2, 15] was 0.5 and the “AK-based Prestwick Library Screening Results, P. aeruginosa (increase in extracellular AK activity)” value [3, 15] was 0.5. The “AK-based Prestwick Library Screening Results, E. cloacae (increase in extracellular AK activity)” value [4, 15] was 0.5, the “AK-based Prestwick Library Screening Results, S. aureus (increase in extracellular AK activity)” value [5, 15] was 0.5 and the “AK-based Prestwick Library Screening Results, K. pneumoniae (increase in extracellular AK activity)” value [6, 15] was 0.5. The “AK-based Prestwick Library Screening Results, E. coli (increase in extracellular AK activity)” value [7, 15] was 0.7.
For Fc1ccc(C(OCCN2CCN(CCCc3ccccc3)CC2)c2ccc(F)cc2)cc1 [GBR 12909 dihydrochloride], the fold induction at 50 µM ([1]; planktonic, cutoff for positive 3-fold increase, read-out: AK-based Prestwick Library Screening Results, E. faecium (fold increase in extracellular AK activity)) was 1.3, the fold induction at 50 µM ([2]; planktonic, cutoff for positive 3-fold increase, read-out: AK-based Prestwick Library Screening Results, A. baumannii (fold increase in extracellular AK activity)) was 2.2 and the fold induction at 50 µM ([3]; planktonic, cutoff for positive 3-fold increase, read-out: AK-based Prestwick Library Screening Results, P. aeruginosa (fold increase in extracellular AK activity)) was 1.2. It also gave a fold induction at 50 µM ([4]; planktonic, cutoff for positive 3-fold increase, read-out: AK-based Prestwick Library Screening Results, E. cloacae (fold increase in extracellular AK activity)) of 1.5, a fold induction at 50 µM ([5]; planktonic, cutoff for positive 3-fold increase, read-out: AK-based Prestwick Library Screening Results, S. aureus (fold increase in extracellular AK activity)) of 1.5 and a fold induction at 50 µM ([6]; planktonic, cutoff for positive 3-fold increase, read-out: AK-based Prestwick Library Screening Results, K. pneumoniae (fold increase in extracellular AK activity)) of 1. The fold induction at 50 µM ([7]; planktonic, cutoff for positive 3-fold increase, read-out: AK-based Prestwick Library Screening Results, E. coli (fold increase in extracellular AK activity)) was 1.4.
With Cc1cc(C2CCCCC2)n(O)c(=O)c1.NCCO [Ciclopirox ethanolamine] the “AK-based Prestwick Library Screening Results, E. faecium (fold increase in extracellular AK activity)” value [1, 16] was 1.6, the “AK-based Prestwick Library Screening Results, A. baumannii (fold increase in extracellular AK activity)” value [2, 16] was 1.2 and the “AK-based Prestwick Library Screening Results, P. aeruginosa (fold increase in extracellular AK activity)” value [3, 16] was 1.0. The “AK-based Prestwick Library Screening Results, E. cloacae (fold increase in extracellular AK activity)” value [4, 16] was 1.2, the “AK-based Prestwick Library Screening Results, S. aureus (fold increase in extracellular AK activity)” value [5, 16] was 0.7 and the “AK-based Prestwick Library Screening Results, K. pneumoniae (fold increase in extracellular AK activity)” value [6, 16] was 0.9. The “AK-based Prestwick Library Screening Results, E. coli (fold increase in extracellular AK activity)” value [7, 16] was 1.1.
O=C1CN(/N=C/c2ccc(-c3ccc([N+](=O)[O-])cc3)o2)C(O)=N1 [Dantrolene sodium salt] was tested, and the fold induction at 50 µM ([1]; planktonic E. faecium, 384-well, cutoff for positive-scoring molecules 3-fold increase, read-out: AK-based Prestwick Library Screening Results: E. faecium (increase in extracellular AK activity)) was 1, the fold induction at 50 µM ([2]; planktonic A. baumannii, 384-well, cutoff for positive-scoring molecules 3-fold increase, read-out: AK-based Prestwick Library Screening Results: A. baumannii (increase in extracellular AK activity)) was 1.1 and the fold induction at 50 µM ([3]; planktonic P. aeruginosa, 384-well, cutoff for positive-scoring molecules 3-fold increase, read-out: AK-based Prestwick Library Screening Results: P. aeruginosa (increase in extracellular AK activity)) was 1.2. It also gave a fold induction at 50 µM ([4]; planktonic E. cloacae, 384-well, cutoff for positive-scoring molecules 3-fold increase, read-out: AK-based Prestwick Library Screening Results: E. cloacae (increase in extracellular AK activity)) of 1.5, a fold induction at 50 µM ([5]; planktonic S. aureus, 384-well, cutoff for positive-scoring molecules 3-fold increase, read-out: AK-based Prestwick Library Screening Results: S. aureus (increase in extracellular AK activity)) of 1.1 and a fold induction at 50 µM ([6]; planktonic K. pneumoniae, 384-well, cutoff for positive-scoring molecules 3-fold increase, read-out: AK-based Prestwick Library Screening Results: K. pneumoniae (increase in extracellular AK activity)) of 0.9. It also gave a fold induction at 50 µM ([7]; planktonic E. coli, 384-well, cutoff for positive-scoring molecules 3-fold increase, read-out: AK-based Prestwick Library Screening Results: E. coli (increase in extracellular AK activity)) of 1.
